In this experiment the target is T1, Bile acid receptor (Homo sapiens, UniProt Q96RI1).
T1 sequence (Q96RI1 whole entry): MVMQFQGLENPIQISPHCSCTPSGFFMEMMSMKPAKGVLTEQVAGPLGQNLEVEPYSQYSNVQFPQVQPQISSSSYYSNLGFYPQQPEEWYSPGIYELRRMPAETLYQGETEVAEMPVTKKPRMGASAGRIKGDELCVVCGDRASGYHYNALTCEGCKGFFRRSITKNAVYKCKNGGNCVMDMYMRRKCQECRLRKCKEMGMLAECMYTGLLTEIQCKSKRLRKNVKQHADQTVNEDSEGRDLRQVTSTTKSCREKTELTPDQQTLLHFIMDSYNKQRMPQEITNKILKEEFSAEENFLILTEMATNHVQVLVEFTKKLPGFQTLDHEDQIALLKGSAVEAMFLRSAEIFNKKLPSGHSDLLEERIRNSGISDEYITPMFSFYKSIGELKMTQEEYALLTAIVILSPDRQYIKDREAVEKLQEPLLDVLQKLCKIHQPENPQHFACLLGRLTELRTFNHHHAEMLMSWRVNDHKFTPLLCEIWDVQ
The experiment in a line: Binding affinity for Farnesoid X Receptor (FXR).

The structures appear in SMILES notation. Where only a bound is given, the exact number is not on record here.

For orientation: EC50 means the concentration that produces a half-maximal response.

On to `C[C@H](CCC(=O)O)C1CC[C@H]2[C@@H]3[C@H](O)[C@H](Cc4ccccc4)C4C[C@H](O)CC[C@]4(C)[C@H]3CC[C@]12C` (stereo partly specified), for which the concentration for a half-maximal effect (EC50) is over 30 µM.

These data come from ChEMBL document CHEMBL1136407, “Binding mode of 6ECDCA, a potent bile acid agonist of the farnesoid X receptor (FXR)” (Bioorg Med Chem Lett, 2003).
